Measurements: patent US11926613B2, “Kinase inhibitors for the treatment of central and peripheral nervous system disorders” (UNIVERSITY OF MIAMI, priority 2017, dated 2024)

Experiments:
[1] = tested on: neurons from hippocampi of E18 rat embryos; assay: Neurite growth length (% NTL) in cultured E18 rat hippocampal neurons, 9-point dose response, 48 hours; assay type: cell-based; conditions: Rattus norvegicus, Neuron, 48 h; for activity at 0.078 µM: 78 nM; for activity at 0.156 µM: 156 nM; for activity at 0.312 µM: 312 nM; for activity at 0.625 µM: 625 nM
Protocol: PRE-COATING CULTURE PLATES: On the day before the experiment, 96-well plates were pre-coated by plating 50 μl of Poly-D-lysine solution (PDL, 0.5 mg/mL) in each well. The next morning, the plates were washed four or five times with HBSS or PBS (150 μl/rinse), then left in buffer until cell plating
PREPARING THE CELLS: A timed pregnant rat carrying E18 embryos was euthanized using an IACUC approved method. In a laminar flow hood, the embryos were removed and placed in a petri dish containing Hank's Balanced Salt Solution (HBSS) with 20 mM HEPES, pH 7.3. Pup brains were dissected (see Meberg et al., 2003) and hippocampi were collected in 15 mL a conical tube containing Hibernate E with SM1 (2% v/v).
Dissociation media was prepared by combining 4.5 mL of Hibernate E (without SM1) with 0.5 mL of trypsin and 100 μl of DNAse solution. The medium over the hippocampi was carefully removed and replaced with dissociation solution, then incubated at 37° C. for 15-20 minutes, occasionally swirling the tube.
Using flame polished cotton plugged Pasteur pipettes, the dissociation media was removed, and then 5 mL of Hibernate E containing SM1 were added. The tube was swirled to thoroughly wash the tissue. The tissue was allowed to settle to the bottom of the tube, and the rinse solution was carefully removed. This step was repeated 5 times to dilute out trypsin and DNAse and remove any debris from lysed cells.
The final rinse media was removed from the tube and 1 pipette-full (1-2 mL) of Hibernate E with SM1 was added. Using the flame-polished Pasteur pipette (pre-wetted with rinse media), the tube was triturated until all cells had dissociated and no visible chunks of tissue remained. Fewer than ten triturations were typically performed. The volume was adjusted to 8-12 mL using Hibernate E containing SM1, the well was mixed and cell concentration was determined.
PLATING: The cells were diluted in culture media (NbActiv4 Cell-culture media) to a final concentration of 10,000 cells/mL. The HBSS was aspirated from PDL coated plates, and 150 μL of cell solution was loaded in the middle 48 wells at 1500 cells per well. Water was loaded in the outer wells to decrease evaporation from edge wells. Cells were allowed to adhere for 2 hours in tissue culture incubator prior to treatment.
TREATMENT: Compounds were diluted to various concentrations to provide 9 dose response concentrations of 20 μM, 10 μM, 5, μM, 2.5 μM, 1.25 μM, 0.625 μM, 0.3125 μM, 0.15625 μM, and 0.078125 μM. The plates were cultured for 48 hours, exposed to the compound at the various dose response concentrations.
FIXING THE CULTURES: The culture medium was removed from the plates and immediately replaced with 100-200 μl of warm (37° C.) 4% paraformaldehyde (PFA) solution in phosphate-buffered saline (PBS). The cells were fixed for 15-20 minutes at room temperature, and then rinsed with PBS (200 μl/well×3).
STAINING AND IMAGING: The PBS was removed and replaced with 100 μl of blocking/permeabilization buffer (PBS, 0.2% fish gelatin, 0.03% Triton X-100, 0.02% NaN3), then incubated overnight at 4° C. To this was added 100 μl of primary antibody solution (mouse anti-Beta III tubulin in blocking buffer) and incubate overnight at 4° C. The wells were rinsed with PBS (200 μl×3), which was then removed and replaced with 100 μl of secondary antibody solution (Goat anti-mouse Alexa 488, 10 μg/ml Hoechst 33342, 0.2% fish gelatin, 0.02% azide, in PBS). The plate was shaken gently on a rotating shaker for 2 hours, then rinsed with PBS (200 μl×5).
The plate was imaged using a Cellomics ArrayScan VTI in 2 different channels for nuclear staining (Hoechst) and cell body/neurite staining (βIII-tubulin). Typically, nine fields per well were imaged with a 5× objective and automatically traced by the Neuronal Profiling Bioapplication. To get reproducible results, at least 200-300 valid neurons were measured per condition. […]

[2] = tested on: Primary Neurons; assay: HCS neurite outgrowth assay (High Content Screening with Primary Neurons); assay type: cell-based; conditions: Primary neuron

| SMILES | activity at 0.078 µM [1] | activity at 0.156 µM [1] | activity at 0.312 µM [1] | activity at 0.625 µM [1] | activity at 1.25 µM [1] | activity at 2.5 µM [1] | activity at 5 µM [1] | activity at 10 µM [1] | activity at 20 µM [1] | EC50 [2] |
| --- | --- | --- | --- | --- | --- | --- | --- | --- | --- | --- |
| O=C(Nc1ccncc1NC(=O)c1ccncc1)c1ccc(C(=O)c2ccccc2)cc1 [Example A3, N-[4-(4-benzoylbenzamido)pyridin-3-yl]pyridine-4-carboxamide] | 98.3% | 99.9% | 96.3% | 92.6% | 96.7% | 95.1% | 93.6% | 92.9% | 96.6% | 0.798 µM |
| COc1ccc(OC)c(C(=O)c2ccc(C(=O)Nc3ccccc3NC(=O)c3ccncc3)cc2)c1F [Example A4, N-{2-[4-(2-fluoro-3,6-dimethoxybenzoyl)benzamido]phenyl}pyridine-4-carboxamide] | 102% | 99% | 110% | 93.2% | 105% | 114% | 114% | 132% | 161% | 9.64 µM |
| COc1ccc(O)c(C(=O)c2ccc(C(=O)Nc3ccccc3NC(=O)c3ccncc3)cc2)c1F [Example A5, N-{2-[4-(2-fluoro-6-hydroxy-3-methoxybenzoyl)benzamido]phenyl}pyridine-4-carboxamide] | 97.8% | 102% | 97.2% | 102% | 102% | 113% | 116% | 124% | 132% | 10.4 µM |
| O=C(Nc1ccccc1NC(=O)c1ccc(C(=O)c2ccccc2)cc1)c1ccncc1 [Example A6, N-[2-(4-benzoylbenzamido)phenyl]pyridine-4-carboxamide] | 94.7% | 106% | 83% | 95.4% | 94.1% | 92.9% | 105% | 107% | 121% | 1.67 µM |
| O=C(c1ccccc1)c1ccc(C(=O)N2CCN(C(=O)c3ccncc3)CC2)cc1 [Example A7, 1-(4-benzoylbenzoyl)-4-(pyridine-4-carbonyl)piperazine] | 97% | 94.8% | 95.7% | 91.2% | 90.8% | 88.3% | 92% | 86.4% | 91.8% | 1.67 µM |
| COc1ccc(OC)c(C(=O)c2ccc(C(=O)N3CCN(C(=O)c4ccncc4)CC3)cc2)c1F [Example A8, 1-[4-(2-fluoro-3,6-dimethoxybenzoyl)benzoyl]-4-(pyridine-4-carbonyl)piperazine] | 99.2% | 98.7% | 96.4% | 99% | 92.9% | 94.4% | 93.8% | 93.2% | 81.6% | > 20 µM |
| COc1ccc(O)c(C(=O)c2ccc(C(=O)N3CCN(C(=O)c4ccncc4)CC3)cc2)c1F [Example A9, 3-fluoro-4-methoxy-2-{4-[4-(pyridine-4-carbonyl)piperazine-1-carbonyl]benzoyl}phenol] | 94.5% | 91.5% | 90.7% | 96.6% | 88% | 98.9% | 98.3% | 89.6% | 89.1% | 4.92 µM |
| O=C(N[C@@H]1c2ccccc2C[C@H]1NC(=O)c1ccncc1)c1ccc(C(=O)c2ccccc2)cc1 [Example A11, N-[(1R,2R)-1-(4-benzoylbenzamido)-2,3-dihydro-1H-inden-2-yl]pyridine-4-carboxamide] | 104% | 102% | 87.4% | 93.8% | 91.7% | 98.5% | 94.6% | 110% | 110% | 5.58 µM |
| COc1ccc(OC)c(C(=O)c2ccc(C(=O)N[C@@H]3c4ccccc4C[C@H]3NC(=O)c3ccncc3)cc2)c1F [Example A12, N-[(1R,2R)-1-[4-(2-fluoro-3,6-dimethoxybenzoyl)benzamido]-2,3-dihydro-1H-inden-2-yl]pyridine-4-carboxamide] | 96.6% | 90.7% | 91.2% | 93.1% | 90.6% | 91% | 106% | 98.6% | 119% | > 20 µM |
| COc1ccc(O)c(C(=O)c2ccc(C(=O)N[C@@H]3c4ccccc4C[C@H]3NC(=O)c3ccncc3)cc2)c1F [Example A14, N-[(1R,2R)-1-[4-(2-fluoro-6-hydroxy-3-methoxybenzoyl)benzamido]-2,3-dihydro-1H-inden-2-yl]pyridine-4-carboxamide] | 105% | 111% | 118% | 119% | 127% | 126% | 140% | 154% | 175% | > 20 µM |
| O=C(N[C@@H]1CCC[C@H]1NC(=O)c1ccc(C(=O)c2ccccc2)cc1)c1ccncc1 [Example A15, N-[(1R,2R)-2-(4-benzoylbenzamido)cyclopentyl]pyridine-4-carboxamide] | 98.5% | 106% | 111% | 114% | 110% | 107% | 110% | 122% | 136% | 7.84 µM |
| COc1ccc(OC)c(C(=O)c2ccc(C(=O)N[C@@H]3CCC[C@H]3NC(=O)c3ccncc3)cc2)c1F [Example A17, N-[(1R,2R)-2-[4-(2-fluoro-3,6-dimethoxybenzoyl)benzamido]cyclopentyl] pyridine-4-carboxamide] | 99.7% | 100% | 104% | 99.8% | 103% | 113% | 112% | 121% | 119% | 1.83 µM |
| COc1ccc(O)c(C(=O)c2ccc(C(=O)N[C@@H]3CCC[C@H]3NC(=O)c3ccncc3)cc2)c1F [Example A18, N-[(1R,2R)-2-[4-(2-fluoro-6-hydroxy-3-methoxybenzoyl)benzamido]cyclopentyl] pyridine-4-carboxamide] | 113% | 115% | 119% | 120% | 121% | 133% | 130% | 131% | 140% | 6.61 µM |
